Reference: article PMC3639963, “A New Class of Small Molecule Inhibitor of BMP Signaling” (PLoS ONE, 2013)

Tests used:
Test in all cases: Nanosyn kinase profiling
Format in all cases: biochemical
Settings in all cases: read-out: Percentage inhibition; for inhibition at 0.1 µM: 0.1 µM inhibitor; for inhibition at 1 µM: 1 µM inhibitor
AXL = target: T1, AXL (Homo sapiens, UniProt P30530)
T1 construct: purchased Nanosyn (enzymatic panel); SGC in-house recombinant human kinases (DSF panel); Invitrogen (ALK1-6)
T1 sequence (P30530 26-894): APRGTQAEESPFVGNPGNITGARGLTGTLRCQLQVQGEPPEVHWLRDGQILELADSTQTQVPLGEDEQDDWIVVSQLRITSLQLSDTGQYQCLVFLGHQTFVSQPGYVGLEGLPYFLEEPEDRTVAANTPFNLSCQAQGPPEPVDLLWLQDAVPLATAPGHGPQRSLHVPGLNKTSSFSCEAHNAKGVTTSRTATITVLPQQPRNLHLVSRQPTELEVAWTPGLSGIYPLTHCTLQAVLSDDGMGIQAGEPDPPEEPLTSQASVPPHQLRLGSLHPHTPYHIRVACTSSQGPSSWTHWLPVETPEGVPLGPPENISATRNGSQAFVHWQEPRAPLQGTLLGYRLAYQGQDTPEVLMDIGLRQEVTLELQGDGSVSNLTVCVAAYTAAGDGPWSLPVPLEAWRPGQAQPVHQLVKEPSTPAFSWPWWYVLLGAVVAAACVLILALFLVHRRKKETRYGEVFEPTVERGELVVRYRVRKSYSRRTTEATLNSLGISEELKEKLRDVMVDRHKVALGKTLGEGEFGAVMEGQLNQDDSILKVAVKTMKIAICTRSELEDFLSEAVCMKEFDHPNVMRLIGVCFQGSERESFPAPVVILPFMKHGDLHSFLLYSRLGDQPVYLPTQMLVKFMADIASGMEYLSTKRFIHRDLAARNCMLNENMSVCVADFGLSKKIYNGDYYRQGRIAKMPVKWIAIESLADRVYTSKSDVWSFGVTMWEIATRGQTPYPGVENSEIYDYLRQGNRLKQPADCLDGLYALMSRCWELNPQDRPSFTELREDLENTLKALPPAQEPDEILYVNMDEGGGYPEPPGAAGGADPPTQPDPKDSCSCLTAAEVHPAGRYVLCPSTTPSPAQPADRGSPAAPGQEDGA
How it was run: (§1)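 Percent inhibition of each kinase was measured with the inhibitor at 0.1 µM and at 1 µM, as part of a 200-kinase human selectivity panel.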

LYNA = target: T2, LYNA (Homo sapiens, UniProt P07948)
T2 construct: purchased Nanosyn (enzymatic panel); SGC in-house recombinant human kinases (DSF panel); Invitrogen (ALK1-6)
How it was run: as §1

CK1γ2 = target: T3, CK1γ2 (Homo sapiens, UniProt P78368)
T3 construct: purchased Nanosyn (enzymatic panel); SGC in-house recombinant human kinases (DSF panel); Invitrogen (ALK1-6)
How it was run: as §1

DDR2 = target: T4, DDR2 (Homo sapiens, UniProt Q16832)
T4 construct: purchased Nanosyn (enzymatic panel); SGC in-house recombinant human kinases (DSF panel); Invitrogen (ALK1-6)
T4 sequence (Q16832 22-855): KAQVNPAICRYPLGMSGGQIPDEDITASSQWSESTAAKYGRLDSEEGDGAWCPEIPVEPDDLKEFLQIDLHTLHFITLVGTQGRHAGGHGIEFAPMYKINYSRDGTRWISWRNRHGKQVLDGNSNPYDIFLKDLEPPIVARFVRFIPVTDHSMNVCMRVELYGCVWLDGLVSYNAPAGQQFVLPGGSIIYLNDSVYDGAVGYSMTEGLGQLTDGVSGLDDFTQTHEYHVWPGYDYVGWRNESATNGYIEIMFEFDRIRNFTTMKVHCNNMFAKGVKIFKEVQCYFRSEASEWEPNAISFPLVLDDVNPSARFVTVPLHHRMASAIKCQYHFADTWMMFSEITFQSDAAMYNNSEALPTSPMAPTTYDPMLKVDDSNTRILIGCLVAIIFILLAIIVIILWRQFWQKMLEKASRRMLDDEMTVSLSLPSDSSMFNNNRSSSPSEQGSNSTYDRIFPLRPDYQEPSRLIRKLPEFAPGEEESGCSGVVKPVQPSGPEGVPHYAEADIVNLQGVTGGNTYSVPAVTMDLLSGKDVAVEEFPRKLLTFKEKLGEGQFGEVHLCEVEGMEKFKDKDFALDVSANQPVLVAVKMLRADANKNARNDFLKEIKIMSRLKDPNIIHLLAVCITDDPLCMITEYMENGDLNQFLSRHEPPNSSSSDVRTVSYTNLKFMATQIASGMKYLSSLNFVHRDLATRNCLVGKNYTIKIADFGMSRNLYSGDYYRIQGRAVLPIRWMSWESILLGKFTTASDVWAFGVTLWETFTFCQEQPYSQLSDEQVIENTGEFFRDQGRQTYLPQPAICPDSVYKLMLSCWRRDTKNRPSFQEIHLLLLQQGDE
How it was run: as §1

TNK2 = target: T5, TNK2 (Homo sapiens, UniProt Q07912)
T5 construct: purchased Nanosyn (enzymatic panel); SGC in-house recombinant human kinases (DSF panel); Invitrogen (ALK1-6)
How it was run: as §1

TRKB = target: T6, TRKB (Homo sapiens, UniProt Q16620)
T6 construct: purchased Nanosyn (enzymatic panel); SGC in-house recombinant human kinases (DSF panel); Invitrogen (ALK1-6)
How it was run: as §1

DYRK1A = target: T7, DYRK1A (Homo sapiens, UniProt Q13627)
T7 construct: purchased Nanosyn (enzymatic panel); SGC in-house recombinant human kinases (DSF panel); Invitrogen (ALK1-6)
How it was run: as §1

JAK2 = target: T8, JAK2 (Homo sapiens, UniProt O60674)
T8 construct: purchased Nanosyn (enzymatic panel); SGC in-house recombinant human kinases (DSF panel); Invitrogen (ALK1-6)
How it was run: as §1

ROS = target: T9, ROS (Homo sapiens, UniProt P08922)
T9 construct: purchased Nanosyn (enzymatic panel); SGC in-house recombinant human kinases (DSF panel); Invitrogen (ALK1-6)
How it was run: as §1

FLT4 = target: T10, FLT4 (Homo sapiens, UniProt P35916)
T10 construct: purchased Nanosyn (enzymatic panel); SGC in-house recombinant human kinases (DSF panel); Invitrogen (ALK1-6)
How it was run: as §1

T9 sequence (P08922 28-2347): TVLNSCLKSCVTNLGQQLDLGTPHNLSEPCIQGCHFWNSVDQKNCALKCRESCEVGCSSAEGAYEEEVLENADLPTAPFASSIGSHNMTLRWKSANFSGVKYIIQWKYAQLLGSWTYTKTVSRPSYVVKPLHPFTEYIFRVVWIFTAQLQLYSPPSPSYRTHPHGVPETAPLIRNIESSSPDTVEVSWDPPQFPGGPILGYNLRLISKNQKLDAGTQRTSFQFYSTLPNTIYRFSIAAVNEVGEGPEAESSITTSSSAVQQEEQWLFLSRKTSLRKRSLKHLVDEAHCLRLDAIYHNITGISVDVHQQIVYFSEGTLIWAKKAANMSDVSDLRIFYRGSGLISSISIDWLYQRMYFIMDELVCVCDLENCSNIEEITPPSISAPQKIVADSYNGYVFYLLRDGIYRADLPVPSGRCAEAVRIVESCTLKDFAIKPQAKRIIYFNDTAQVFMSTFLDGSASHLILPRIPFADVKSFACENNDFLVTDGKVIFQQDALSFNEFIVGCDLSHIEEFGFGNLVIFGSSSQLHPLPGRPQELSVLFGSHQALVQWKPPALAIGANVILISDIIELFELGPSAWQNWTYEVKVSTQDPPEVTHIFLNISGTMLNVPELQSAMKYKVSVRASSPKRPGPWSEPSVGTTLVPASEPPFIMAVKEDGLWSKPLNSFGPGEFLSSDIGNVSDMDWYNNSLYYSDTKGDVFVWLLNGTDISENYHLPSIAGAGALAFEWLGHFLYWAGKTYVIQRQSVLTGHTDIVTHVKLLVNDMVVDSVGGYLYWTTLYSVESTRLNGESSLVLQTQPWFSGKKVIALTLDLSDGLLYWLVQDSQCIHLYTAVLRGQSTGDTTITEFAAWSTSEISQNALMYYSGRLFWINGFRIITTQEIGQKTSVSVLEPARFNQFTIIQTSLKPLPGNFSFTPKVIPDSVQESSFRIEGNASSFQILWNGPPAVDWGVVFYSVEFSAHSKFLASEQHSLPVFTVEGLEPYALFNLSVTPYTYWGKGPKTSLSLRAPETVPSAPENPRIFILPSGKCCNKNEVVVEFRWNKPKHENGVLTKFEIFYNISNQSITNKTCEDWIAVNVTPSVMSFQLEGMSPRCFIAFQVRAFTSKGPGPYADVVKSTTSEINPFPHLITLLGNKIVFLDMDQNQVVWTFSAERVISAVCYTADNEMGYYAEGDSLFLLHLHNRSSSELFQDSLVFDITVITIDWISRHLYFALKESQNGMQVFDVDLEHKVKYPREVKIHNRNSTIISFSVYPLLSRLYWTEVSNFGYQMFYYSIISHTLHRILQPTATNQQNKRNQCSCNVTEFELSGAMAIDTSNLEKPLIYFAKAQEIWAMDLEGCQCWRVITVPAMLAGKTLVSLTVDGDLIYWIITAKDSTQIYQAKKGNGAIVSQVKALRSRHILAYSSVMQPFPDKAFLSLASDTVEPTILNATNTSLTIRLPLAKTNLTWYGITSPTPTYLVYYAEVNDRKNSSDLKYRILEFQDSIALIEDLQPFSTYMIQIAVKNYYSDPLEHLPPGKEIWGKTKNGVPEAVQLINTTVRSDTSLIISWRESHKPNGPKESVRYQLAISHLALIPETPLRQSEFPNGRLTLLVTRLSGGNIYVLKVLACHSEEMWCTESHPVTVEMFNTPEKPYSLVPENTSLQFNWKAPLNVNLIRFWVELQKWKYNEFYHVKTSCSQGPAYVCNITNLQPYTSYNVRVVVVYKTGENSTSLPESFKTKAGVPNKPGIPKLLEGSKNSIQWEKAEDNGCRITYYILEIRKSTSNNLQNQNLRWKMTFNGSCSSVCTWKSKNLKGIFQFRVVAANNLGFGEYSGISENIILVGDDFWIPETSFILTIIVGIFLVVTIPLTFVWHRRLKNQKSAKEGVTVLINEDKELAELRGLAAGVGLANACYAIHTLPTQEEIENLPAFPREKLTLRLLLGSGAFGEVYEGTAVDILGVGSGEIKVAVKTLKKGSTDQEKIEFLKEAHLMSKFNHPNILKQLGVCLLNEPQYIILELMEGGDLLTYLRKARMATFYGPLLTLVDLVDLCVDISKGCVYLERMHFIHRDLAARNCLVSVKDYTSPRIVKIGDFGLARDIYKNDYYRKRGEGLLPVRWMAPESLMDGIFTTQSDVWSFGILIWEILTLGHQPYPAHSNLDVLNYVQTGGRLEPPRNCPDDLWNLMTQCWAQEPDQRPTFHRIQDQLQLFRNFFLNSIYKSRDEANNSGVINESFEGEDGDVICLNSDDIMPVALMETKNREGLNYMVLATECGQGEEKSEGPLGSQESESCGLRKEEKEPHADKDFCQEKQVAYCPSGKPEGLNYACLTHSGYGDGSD
T5 sequence (Q07912 whole entry): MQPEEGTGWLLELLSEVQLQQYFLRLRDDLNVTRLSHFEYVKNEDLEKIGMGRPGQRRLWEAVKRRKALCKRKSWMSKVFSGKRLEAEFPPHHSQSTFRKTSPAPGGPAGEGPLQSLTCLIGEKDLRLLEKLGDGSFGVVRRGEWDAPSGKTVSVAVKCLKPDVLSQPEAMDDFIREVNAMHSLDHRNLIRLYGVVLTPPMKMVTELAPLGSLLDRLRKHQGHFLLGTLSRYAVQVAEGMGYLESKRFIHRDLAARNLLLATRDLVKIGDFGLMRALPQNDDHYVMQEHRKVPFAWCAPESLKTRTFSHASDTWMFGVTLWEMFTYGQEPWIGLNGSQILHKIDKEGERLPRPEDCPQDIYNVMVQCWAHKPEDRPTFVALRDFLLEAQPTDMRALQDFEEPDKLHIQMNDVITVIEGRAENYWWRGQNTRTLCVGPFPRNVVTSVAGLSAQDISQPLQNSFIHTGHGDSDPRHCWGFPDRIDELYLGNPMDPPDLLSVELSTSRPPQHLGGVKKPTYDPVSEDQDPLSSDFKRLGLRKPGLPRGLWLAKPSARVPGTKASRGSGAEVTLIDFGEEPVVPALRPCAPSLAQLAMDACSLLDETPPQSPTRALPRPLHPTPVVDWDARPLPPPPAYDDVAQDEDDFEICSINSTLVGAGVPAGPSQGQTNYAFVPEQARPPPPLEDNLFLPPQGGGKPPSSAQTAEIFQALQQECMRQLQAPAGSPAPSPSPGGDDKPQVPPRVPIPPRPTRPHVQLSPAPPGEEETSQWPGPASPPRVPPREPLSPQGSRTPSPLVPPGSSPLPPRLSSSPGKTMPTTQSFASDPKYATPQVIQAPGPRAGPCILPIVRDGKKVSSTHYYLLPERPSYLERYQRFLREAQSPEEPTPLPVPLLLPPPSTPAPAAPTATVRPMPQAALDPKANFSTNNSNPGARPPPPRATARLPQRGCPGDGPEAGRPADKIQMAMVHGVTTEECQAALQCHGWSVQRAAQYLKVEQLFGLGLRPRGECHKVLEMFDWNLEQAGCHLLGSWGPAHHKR
T2 sequence (P07948 whole entry): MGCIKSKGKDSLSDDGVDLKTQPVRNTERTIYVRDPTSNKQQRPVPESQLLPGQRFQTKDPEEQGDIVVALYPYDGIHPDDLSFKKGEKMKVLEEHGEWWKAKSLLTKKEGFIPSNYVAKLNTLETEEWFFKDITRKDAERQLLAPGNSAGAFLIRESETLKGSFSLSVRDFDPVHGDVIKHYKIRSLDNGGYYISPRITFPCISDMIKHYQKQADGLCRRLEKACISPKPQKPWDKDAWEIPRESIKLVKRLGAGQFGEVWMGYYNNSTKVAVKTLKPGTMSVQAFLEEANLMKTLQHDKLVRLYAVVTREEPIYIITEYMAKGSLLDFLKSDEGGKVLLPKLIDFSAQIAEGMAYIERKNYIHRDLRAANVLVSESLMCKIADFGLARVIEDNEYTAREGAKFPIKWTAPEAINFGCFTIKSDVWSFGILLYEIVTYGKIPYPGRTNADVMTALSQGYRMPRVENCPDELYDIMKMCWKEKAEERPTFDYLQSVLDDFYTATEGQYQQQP
T3 sequence (P78368 whole entry): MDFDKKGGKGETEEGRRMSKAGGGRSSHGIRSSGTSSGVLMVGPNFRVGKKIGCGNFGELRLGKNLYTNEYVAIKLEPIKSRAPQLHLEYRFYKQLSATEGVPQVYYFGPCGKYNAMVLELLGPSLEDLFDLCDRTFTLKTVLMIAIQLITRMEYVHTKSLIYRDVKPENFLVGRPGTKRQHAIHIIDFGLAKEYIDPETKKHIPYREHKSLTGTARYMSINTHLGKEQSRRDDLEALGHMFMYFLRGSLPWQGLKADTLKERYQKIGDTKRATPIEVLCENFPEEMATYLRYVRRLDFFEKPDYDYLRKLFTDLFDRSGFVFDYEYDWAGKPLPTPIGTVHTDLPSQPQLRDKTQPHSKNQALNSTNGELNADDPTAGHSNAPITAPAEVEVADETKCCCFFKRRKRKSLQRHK
T6 sequence (Q16620 32-822): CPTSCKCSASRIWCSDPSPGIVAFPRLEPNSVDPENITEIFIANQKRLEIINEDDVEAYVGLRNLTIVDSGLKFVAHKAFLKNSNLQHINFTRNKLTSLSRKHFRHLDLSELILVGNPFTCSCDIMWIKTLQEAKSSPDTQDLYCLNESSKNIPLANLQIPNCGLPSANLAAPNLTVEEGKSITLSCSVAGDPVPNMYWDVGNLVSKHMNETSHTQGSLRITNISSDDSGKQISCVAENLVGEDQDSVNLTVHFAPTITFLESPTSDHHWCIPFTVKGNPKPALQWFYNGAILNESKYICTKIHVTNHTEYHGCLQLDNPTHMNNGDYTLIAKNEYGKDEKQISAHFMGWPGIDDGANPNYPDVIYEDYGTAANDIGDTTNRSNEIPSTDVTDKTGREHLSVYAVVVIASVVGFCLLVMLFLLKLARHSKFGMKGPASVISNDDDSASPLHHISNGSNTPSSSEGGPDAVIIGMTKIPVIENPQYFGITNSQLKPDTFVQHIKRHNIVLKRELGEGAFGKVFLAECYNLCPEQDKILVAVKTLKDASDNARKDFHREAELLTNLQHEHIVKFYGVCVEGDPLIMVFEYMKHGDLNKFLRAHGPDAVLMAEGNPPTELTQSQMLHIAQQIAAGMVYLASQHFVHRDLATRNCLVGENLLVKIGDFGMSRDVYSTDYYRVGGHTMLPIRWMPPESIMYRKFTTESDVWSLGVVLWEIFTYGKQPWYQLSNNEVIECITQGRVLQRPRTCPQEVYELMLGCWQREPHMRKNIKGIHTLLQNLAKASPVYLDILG

SMILES | inhibition at 0.1 µM (AXL) [%] | inhibition at 1 µM (AXL) [%] | inhibition at 0.1 µM (LYNA) [%] | inhibition at 1 µM (LYNA) [%] | inhibition at 0.1 µM (CK1γ2) [%] | inhibition at 1 µM (CK1γ2) [%] | inhibition at 0.1 µM (DDR2) [%] | inhibition at 1 µM (DDR2) [%] | inhibition at 0.1 µM (TNK2) [%] | inhibition at 1 µM (TNK2) [%] | inhibition at 0.1 µM (TRKB) [%] | inhibition at 1 µM (TRKB) [%] | inhibition at 0.1 µM (DYRK1A) [%] | inhibition at 1 µM (DYRK1A) [%] | inhibition at 0.1 µM (JAK2) [%] | inhibition at 1 µM (JAK2) [%] | inhibition at 0.1 µM (ROS) [%] | inhibition at 1 µM (ROS) [%] | inhibition at 0.1 µM (FLT4) [%] | inhibition at 1 µM (FLT4) [%]
COc1cc(-c2cc(-c3cccc(O)c3)cnc2N)cc(OC)c1OC [K02288, 3-[6-amino-5-(3,4,5-trimethoxy-phenyl)-pyridin-3-yl]-phenol] | 0.9 | 1.5 | 9.7 | 49 | -1 | 5.5 | 0 | 11 | 3.6 | 31 | 1.8 | 3.9 | 1.9 | 4.1 | 0 | 0 | 1.8 | 6.8 | 0.6 | 1.4
c1ccc2c(-c3cnn4cc(-c5ccc(N6CCNCC6)cc5)cnc34)ccnc2c1 [LDN-193189] | -4 | 1.1 | 9.1 | 39 | 1.6 | 3.9 | 5.5 | 27 | 2 | 10 | 0.8 | 3 | 10 | 53 | 2 | 0.5 | 3.8 | 3.7 | 3.4 | 13
